# Laboratory results from patent US20260248780A1, “PHARMACEUTICAL COMPOSITIONS” (Birdie Biopharmaceuticals, Inc., priority 2017, published 2026).
# Experiments:
# [1] = pKa determination on Sirius T3; type: physicochemical
# Procedure: The mixtures of freebase and acid were stirred at RT for 2.5 days. Clear solutions obtained were slurried at 5° C. overnight to induce precipitation. If the samples were still clear, they would be subjected to evaporation to dryness at RT, in order to maximize the chance of identifying as many crystalline hits as possible. Resulted solids were isolated and analyzed by XRPD.
# pKa was determined on Sirius T3 TM according to the manufacturer's instructions and the parameters for pKa test was listed in Table 5-13.
# [2] = Polymorph screening of freebase Type A (solid form by XRPD); type: physicochemical
compound,measurement,setting,value
"CCOCc1nc2c(N)nc3ccccc3c2n1CC(C)(C)O [Freebase Type A, 1-[4-amino-2-(ethoxymethyl)imidazo-[4,5-c]-quinolin-1-yl]-2-methylpropan-2-ol]",pKa,[1],7.2
same,Solid Form,"[2]; anti-solvent addition: solvent 1,4-dioxane, anti-solvent Toluene, solids after stirring at 5° C. for 2 days",Type A
same,Solid Form,"[2]; anti-solvent addition: solvent 2-MeTHF, anti-solvent n-heptane",Type A + B
same,Solid Form,"[2]; anti-solvent addition: solvent Acetone, anti-solvent H2O, no solid at 5° C., then evaporation",Type A
same,Solid Form,"[2]; anti-solvent addition: solvent Acetone, anti-solvent MTBE, no solid at 5° C., then evaporation",Type B
same,Solid Form,"[2]; anti-solvent addition: solvent CHCl3, anti-solvent MTBE",Type A
same,Solid Form,"[2]; anti-solvent addition: solvent CHCl3, anti-solvent n-heptane",Type A + B
same,Solid Form,"[2]; anti-solvent addition: solvent DCM, anti-solvent Anisole",Clear
same,Solid Form,"[2]; anti-solvent addition: solvent DCM, anti-solvent Toluene",Type A
same,Solid Form,"[2]; anti-solvent addition: solvent DMAc, anti-solvent H2O",Type A
same,Solid Form,"[2]; anti-solvent addition: solvent DMSO, anti-solvent H2O",Type A
same,Solid Form,"[2]; anti-solvent addition: solvent EtOH, anti-solvent Anisole, no solid at 5° C., then evaporation",Type G
same,Solid Form,"[2]; anti-solvent addition: solvent EtOH, anti-solvent n-heptane",Type A
same,Solid Form,"[2]; anti-solvent addition: solvent Ethyl lactate, anti-solvent n-heptane",Type A + Sample H
same,Solid Form,"[2]; anti-solvent addition: solvent IBA, anti-solvent Toluene, no solid at 5° C., then evaporation",Type B
same,Solid Form,"[2]; anti-solvent addition: solvent IPA, anti-solvent H2O, no solid at 5° C., then evaporation",Clear
same,Solid Form,"[2]; anti-solvent addition: solvent MeOH, anti-solvent H2O",Type A
same,Solid Form,"[2]; anti-solvent addition: solvent MeOH, anti-solvent MTBE, solids after stirring at 5° C. for 2 days",Type A
same,Solid Form,"[2]; anti-solvent addition: solvent NMP, anti-solvent H2O",Type A
same,Solid Form,"[2]; anti-solvent addition: solvent THF, anti-solvent H2O, no solid at 5° C., then evaporation",Type A
same,Solid Form,"[2]; anti-solvent addition: solvent THF, anti-solvent n-heptane",Type A + B
same,Solid Form,"[2]; liquid vapor diffusion, RT 6 days: solvent 2-MeTHF, anti-solvent Toluene",Type A
same,Solid Form,"[2]; liquid vapor diffusion, RT 6 days: solvent Acetone, anti-solvent n-heptane",Type A
same,Solid Form,"[2]; liquid vapor diffusion, RT 6 days: solvent CHCl3, anti-solvent Toluene",Type A + B
same,Solid Form,"[2]; liquid vapor diffusion, RT 6 days: solvent DCM, anti-solvent n-heptane",Type A
same,Solid Form,"[2]; liquid vapor diffusion, RT 6 days: solvent DMAc, anti-solvent MTBE",Type D
same,Solid Form,"[2]; liquid vapor diffusion, RT 6 days: solvent EtOH, anti-solvent H2O",Type A
same,Solid Form,"[2]; liquid vapor diffusion, RT 6 days: solvent Ethyl lactate, anti-solvent MTBE",Clear
same,Solid Form,"[2]; liquid vapor diffusion, RT 6 days: solvent IBA, anti-solvent n-heptane",Clear
same,Solid Form,"[2]; liquid vapor diffusion, RT 6 days: solvent NMP, anti-solvent MTBE",Type E
same,Solid Form,"[2]; liquid vapor diffusion, RT 6 days: solvent THF, anti-solvent H2O",Type B
same,Solid Form,"[2]; polymer induced crystallization: Acetone, Polymer mixture A",Type A
same,Solid Form,"[2]; polymer induced crystallization: Acetone, Polymer mixture B",Type A
same,Solid Form,"[2]; polymer induced crystallization: MeOH, Polymer mixture A",Type A
same,Solid Form,"[2]; polymer induced crystallization: MeOH, Polymer mixture B",Type B
same,Solid Form,"[2]; polymer induced crystallization: THF, Polymer mixture A",Type A
same,Solid Form,"[2]; polymer induced crystallization: THF, Polymer mixture B",Type A
same,Crystal Form,"[2]; screening summary: Anti-solvent Addition, 20 experiments","Type A, B, G, sample H"
same,Crystal Form,"[2]; screening summary: Polymer-induced Crystallization, 6 experiments","Type A, B"
same,Crystal Form,"[2]; screening summary: Slow Cooling, 10 experiments","Type A, B, F, G"
same,Crystal Form,"[2]; screening summary: Slow Evaporation, 10 experiments","Type A, B"
same,Crystal Form,"[2]; screening summary: Slurry at RT/50° C., 31 experiments","Type A, C"
same,Crystal Form,"[2]; screening summary: Solid Vapor Diffusion, 13 experiments","Type A, C"
same,Crystal Form,"[2]; screening summary: Solution Vapor Diffusion, 10 experiments","Type A, B, D, E"
same,Crystal Form,"[2]; screening summary: Total, 100 experiments","Type A~G, sample H"
same,Solid Form,"[2]; slow cooling, then −20° C.: ACN",Type A
same,Solid Form,"[2]; slow cooling, then −20° C.: Acetone/H2O (1:3)",Type A
same,Solid Form,"[2]; slow cooling, then −20° C.: Anisole, limited solid, then evaporation at RT",Type G
same,Solid Form,"[2]; slow cooling, then −20° C.: CHCl3/MTBE (1:3)",Type B
same,Solid Form,"[2]; slow cooling, then −20° C.: EtOAc",Type A
same,Solid Form,"[2]; slow cooling, then −20° C.: EtOH/n-heptane (1:3)",Type A
same,Solid Form,"[2]; slow cooling, then −20° C.: IPAc",Type A
same,Solid Form,"[2]; slow cooling, then −20° C.: MEK",Type F
same,Solid Form,"[2]; slow cooling, then −20° C.: MIBK",Type A + B
same,Solid Form,"[2]; slow cooling, then −20° C.: THF/toluene (1:3)",Type A + B
same,Solid Form,[2]; slow evaporation at RT: 2-MeTHF/n-heptane (1:1),Type B
same,Solid Form,[2]; slow evaporation at RT: ACN,Type A + B
same,Solid Form,[2]; slow evaporation at RT: Acetone,Type A
same,Solid Form,[2]; slow evaporation at RT: CHCl3/n-heptane (1:1),Type A + B
same,Solid Form,[2]; slow evaporation at RT: DCM,Type A
same,Solid Form,[2]; slow evaporation at RT: EtOAc,Type B
same,Solid Form,[2]; slow evaporation at RT: EtOH/H2O (1:1),Type A
same,Solid Form,[2]; slow evaporation at RT: IPA,Type A
same,Solid Form,[2]; slow evaporation at RT: MeOH,Type A
same,Solid Form,[2]; slow evaporation at RT: THF,Type A
same,Solid Form,"[2]; slurry at 50° C., about 3 days: 1,4-dioxane",Type C
same,Solid Form,"[2]; slurry at 50° C., about 3 days: 2-MeTHF",Type A
same,Solid Form,"[2]; slurry at 50° C., about 3 days: ACN",Type A
same,Solid Form,"[2]; slurry at 50° C., about 3 days: Anisole",Type A
same,Solid Form,"[2]; slurry at 50° C., about 3 days: CHCl3/toluene (1:5)",Type A
same,Solid Form,"[2]; slurry at 50° C., about 3 days: EtOAc",Type A
same,Solid Form,"[2]; slurry at 50° C., about 3 days: H2O",Type A
same,Solid Form,"[2]; slurry at 50° C., about 3 days: IBA",Type A
same,Solid Form,"[2]; slurry at 50° C., about 3 days: IPA",Type A
same,Solid Form,"[2]; slurry at 50° C., about 3 days: IPAc",Type A
same,Solid Form,"[2]; slurry at 50° C., about 3 days: MEK",Type A
same,Solid Form,"[2]; slurry at 50° C., about 3 days: MIBK",Type A
same,Solid Form,"[2]; slurry at 50° C., about 3 days: MeOH/H2O (1:5)",Type A
same,Solid Form,"[2]; slurry at 50° C., about 3 days: THF/n-heptane (1:5)",Type A
same,Solid Form,"[2]; slurry at RT, 3 days: 1,4-dioxane",Type A
same,Solid Form,"[2]; slurry at RT, 3 days: 2-MeTHF",Type A
same,Solid Form,"[2]; slurry at RT, 3 days: ACN",Type A
same,Solid Form,"[2]; slurry at RT, 3 days: Anisole",Type A
same,Solid Form,"[2]; slurry at RT, 3 days: DCM/toluene (1:3)",Type A
same,Solid Form,"[2]; slurry at RT, 3 days: EtOAc",Type A
same,Solid Form,"[2]; slurry at RT, 3 days: IBA",Type A
same,Solid Form,"[2]; slurry at RT, 3 days: IPA",Type A
same,Solid Form,"[2]; slurry at RT, 3 days: IPAc",Type A
same,Solid Form,"[2]; slurry at RT, 3 days: MEK",Type A
same,Solid Form,"[2]; slurry at RT, 3 days: MIBK",Type A
same,Solid Form,"[2]; slurry at RT, 3 days: MeOH/H2O (1:3)",Type A
same,Solid Form,"[2]; slurry at RT, 3 days: THF/n-heptane (1:3)",Type A
same,Solid Form,"[2]; slurry at RT, 3 days: acetone/H2O (aw = 0.2)",Type A
same,Solid Form,"[2]; slurry at RT, 3 days: acetone/H2O (aw = 0.4)",Type A
same,Solid Form,"[2]; slurry at RT, 3 days: acetone/H2O (aw = 0.6)",Type A
same,Solid Form,"[2]; slurry at RT, 3 days: acetone/H2O (aw = 0.8)",Type A
same,Solid Form,"[2]; solid vapor diffusion, RT 7 days: 1,4-dioxane",Type C
same,Solid Form,"[2]; solid vapor diffusion, RT 7 days: ACN",Type A
same,Solid Form,"[2]; solid vapor diffusion, RT 7 days: Acetone",Type A
same,Solid Form,"[2]; solid vapor diffusion, RT 7 days: CHCl3",Type A
same,Solid Form,"[2]; solid vapor diffusion, RT 7 days: DCM",Type A
same,Solid Form,"[2]; solid vapor diffusion, RT 7 days: DMF",Type A
same,Solid Form,"[2]; solid vapor diffusion, RT 7 days: DMSO",Type A
same,Solid Form,"[2]; solid vapor diffusion, RT 7 days: EtOAc",Type A
same,Solid Form,"[2]; solid vapor diffusion, RT 7 days: EtOH",Type A
same,Solid Form,"[2]; solid vapor diffusion, RT 7 days: H2O",Type A
same,Solid Form,"[2]; solid vapor diffusion, RT 7 days: IPA",Type A
same,Solid Form,"[2]; solid vapor diffusion, RT 7 days: MeOH",Type A
same,Solid Form,"[2]; solid vapor diffusion, RT 7 days: THF",Type A
